Reference: patent publication US4670542A, “New antibiotics, preparation and use of and intermediates therefor” (Bayer Aktiengesellschaft, priority 1983, dated 1987)
Starred links: 1 amine or outer side, 2 acyl side, 3 side chain; linkers in the order of their positions; H or OH if unused. Non-standard residues stand in square brackets, D forms with d. Residues, ends and D or L forms follow the SMILES beside them. ξ: configuration not given here. X1 = Cn1c(=NC(N)=O)ccn(C2SC(C(O)C(N[*:1])C(=O)[*:2])C(O)C2O)c1=O; Orn(N5-OH,N5-Ac) = CC(=O)N(O)CCC[C@H](N)C(=O)O; ξT = CC(O)C(N)C(=O)O; ξA = CC(N)C(=O)O

Experiments:
Assay in all cases: Hole test, inhibiting areola diameter, medium DST agar
Type in all cases: cell-based
E. coli T 7 = test system: E. coli T 7; set-up: unit not given here
Text: (§1) Activity against the germs listed below is found in vitro, on the basis of the diameter of the inhibiting areola.

E. coli 14 = test system: E. coli 14
Text: as §1

Prot. 1017 = conditions: 1000 ug/ml
Text: as §1

Staph. 133 = conditions: 1000 ug/ml
Text: as §1

Klebs. 57 USA = conditions: 100 ug/ml
Text: as §1

SMILES | Inhibiting areola diameter E. coli T 7 (E. coli T 7; 10 ug/ml) | Inhibiting areola diameter E. coli T 7 (E. coli T 7; 100 ug/ml) | Inhibiting areola diameter E. coli 14 (E. coli 14; 10 ug/ml) | Inhibiting areola diameter E. coli 14 (E. coli 14; 100 ug/ml) | Inhibiting areola diameter E. coli T 7 (E. coli T 7; 1000 ug/ml) | Inhibiting areola diameter E. coli 14 (E. coli 14; 1000 ug/ml) | Inhibiting areola diameter Prot. 1017 (Prot. 1017) | Inhibiting areola diameter Staph. 133 (Staph. 133) | Inhibiting areola diameter Klebs. 57 USA (Klebs. 57 USA)
CC(=O)N(O)CCC[C@H](NC(=O)[C@H](CCCN(O)C(C)=O)NC(=O)[C@@H](N)CCCN(O)C(C)=O)C(=O)NC(C)C(=O)NC(C(=O)O)C(O)C1SC(n2ccc(=NC(N)=O)n(C)c2=O)C(O)C1O (some centres unmarked) [Compound 9, Peptidyl-nucleoside] (H-[Orn(N5-OH,N5-Ac)][Orn(N5-OH,N5-Ac)][Orn(N5-OH,N5-Ac)][ξA][X1]-OH) | 28 | 34 | 30 | 34 | – | – | – | – | –
CC(=O)N(O)CCC[C@H](NC(=O)[C@H](CCCN(O)C(C)=O)NC(=O)[C@@H](N)CCCN(O)C(C)=O)C(=O)NC(C(=O)O)C(O)C1SC(n2ccc(=NC(N)=O)n(C)c2=O)C(O)C1O (some centres unmarked) [Compound 13] | – | – | – | – | 19 | 20 | 20 | – | –
CC(=O)N(O)CCC[C@H](NC(=O)[C@H](CCCN(O)C(C)=O)NC(=O)[C@@H](N)CCCN(O)C(C)=O)C(=O)NC(C(=O)NC(C(=O)O)C(O)C1SC(n2ccc(=NC(N)=O)n(C)c2=O)C(O)C1O)C(C)O (some centres unmarked) [Compound 20] (H-[Orn(N5-OH,N5-Ac)][Orn(N5-OH,N5-Ac)][Orn(N5-OH,N5-Ac)][ξT][X1]-OH) | – | 14 | – | 13 | 15 | 14 | 17 | 25 | –
CC(=O)N(O)CCC[C@H](N)C(=O)NC(C(=O)O)C(O)C1SC(n2ccc(=NC(N)=O)n(C)c2=O)C(O)C1O (some centres unmarked) [Compound 11] | 13 | 18 | – | 13 | – | – | – | – | 18
CC(=O)N(O)CCC[C@H](NC(=O)[C@H](CCCN(O)C(C)=O)NC(=O)[C@@H](N)CCCN(O)C(C)=O)C(=O)NC(C(=O)O)C(O)C1SC(n2ccc(=O)n(C)c2=O)C(O)C1O (some centres unmarked) [Compound 24] | – | 18 | – | – | – | 18 | 18 | – | –
